“Also recorded” adds a separate entry of the source.
Test system: LPS-induced acute lung injury (ALI)
Assay: LPS-induced mice acute lung injury (ALI) model, BAL fluid cell counts and lung histology at 24 hours
Format: in vivo, Male C57BL/6 mice
Method: The compound of formula (F-I) was evaluated for the therapeutic efficacy in the LPS-induced mice ALI model. In this study, animals were anesthetized with 2.5% isoflurane inhalation. LPS was used to create ALI at the dose of 3 mg/kg in 50 μl via a direct intratracheal injection. For sham animals, an equal volume of saline solution was directly injected into the trachea. After LPS injection, the test article compound of formula (F-I) was dosed at different single oral doses and different therapeutic time points. Male C57BL/6 mice (n=100) were used in this study. DEX was used as positive control. Animals were randomly divided into 10 groups and dose regimens are described in Table 1. At 24 hours after injection, all animals were euthanized and processed for bronchoalveolar lavage (BAL) fluid collection from bilateral lungs and formalin-fixation of lung tissue pathology studies. [table]

[1] = lung histology at 24 hours of ALI, treatment at 4 or 8 hours of ALI, all dosages, vs model
[2] = single oral dose at 4 or 8 hours of ALI (F-I 1, 3, 10 mg/kg; DEX 3 mg/kg), BAL at 24 hours, vs Vehicle group

## Cc1cccc(COc2ccc(Sc3ccoc3C3NC(=O)NC3=O)cc2)c1 (stereo not drawn) [compound of formula (F-I)]
1 mg/kg via oral gavage at 4 or 8 hours of ALI
  therapeutic efficacy at lower doses: significant therapeutic efficacy
10 mg/kg at 4 hours and 8 hours of ALI, conclusion
  overall efficacy at 10 mg/kg: better
1, 3, 10 mg/kg, dosing at 4 or 8 hours of ALI, histology
  dose dependence of lung tissue protection: no clear dose-dependent lung tissue protection
conclusion, dosing at 8 hours compared with 4 hours of ALI
  overall therapeutic efficacy, dosing at 8 hours vs 4 hours of ALI: slightly better
Dose of 10 mg/kg compared with 1 and 3 mg/kg
  efficacy in BAL fluid analysis, comparison of doses: best efficacy
[1]
  alveolar damages (lung histology): reduction
  bronchial and arteriole damages (lung histology): reduction
  total lung injury (lung histology): reduction
[2]
  neutrophils in BAL fluid: clear trend of dose-dependent reduction; also recorded: reduced
  total inflammatory cells in BAL fluid: clear trend of dose-dependent reduction; also recorded: reduced
Treatment at 8 hours of ALI compared to 4 hours of ALI
  effect on BAL fluid cells, treatment at 8 hours vs 4 hours of ALI: better effect than that at 4 hours of ALI
Treatment at 8 hours of ALI compared to 4 hours of ALI, histology at 24 hours
  lung histology efficacy, treatment at 8 hours vs 4 hours of ALI: better efficacy
